# Target: HCV-NS3/4A protease (Hepacivirus hominis (Hepatitis C virus), UniProt O92972)
# Assay: HCV-NS3/4A protease inhibition, in vitro FRET assay
# Format: biochemical
# Conditions: IC50, purified HCV-NS3/4A protease
# Sequence of HCV-NS3/4A protease (O92972 1027-1207, other chains not shown): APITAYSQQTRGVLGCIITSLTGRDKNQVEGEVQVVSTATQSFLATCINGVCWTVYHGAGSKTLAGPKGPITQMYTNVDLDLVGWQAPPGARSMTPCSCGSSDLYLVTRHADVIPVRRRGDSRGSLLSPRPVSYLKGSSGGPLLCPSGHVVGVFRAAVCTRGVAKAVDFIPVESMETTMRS
row,IC50 [µM],SMILES
1,25.5 ± 0.55,"Cc1ccc2nc(NN)n(C)c(=O)c2c1 [Compound 14, 3-Methyl-2-hydrazinyl-6-methyl-3H-quinazolin-4-one]"
2,178 ± 3.9,"CCn1c(NN)nc2ccc(C)cc2c1=O [Compound 15, 3-Ethyl-2-hydrazinyl-6-methyl-3H-quinazolin-4-one]"
3,78.8 ± 1.7,"CCn1c(NN)nc2cc3ccccc3cc2c1=O [Compound 8, 3-Ethyl-2-hydrazinyl-benzo[g]quinazolin-4(3H)-one]"
4,22.3 ± 0.46,"Cn1c(NN)nc2cc3ccccc3cc2c1=O [Compound 7, 3-Methyl-2-hydrazinylbenzo[g]quinazolin-4(3H)-one]"
